This experiment has as its system SW48 (human colon cancer cells). Briefly: inhibition of SW48 cell proliferation (CellTiter Glo). It is filed as cell-based. The conditions noted are these: NTSR1 targeted compound; 72 hrs; read-out: SW-48 proliferation IC50. How it is done:
Conjugates were assessed in an in vitro assay evaluating inhibition of cell proliferation. SW48 (human colon cancer cells, ATCC®), cells were plated in 96 well, flat-bottomed plates (Costar) at a concentration of 5,000 cells/well. Cells were then incubated at 37° C. with 5% CO2 for 24 hrs. After 24 hrs, cells were treated with 0.01% DMSO or compound. Compounds were added at a starting dose of 10 μM and three fold serial dilutions were done for a total often points. Following compound addition, cells were incubated at 37° C. with 5% CO2 for 72 hrs. Proliferation was measured by CellTiter Glo reagent using the standard protocol (Promega) and a Glomax multi+detection system (Promega). Percent proliferation inhibition was calculated using the following formula: % inhibition=(control−treatment)/control*100. Control is defined as vehicle alone. IC50 curves were generated using the nonlinear regression analysis (four parameter) with GraphPad Prism 6.
Conjugates are assessed for receptor-dependent cytotoxicity by the difference between an NTSR1-targeting conjugate, and the corresponding conjugate with the same linker moiety and active agent where the NTSR1-targeting domain has been scrambled.

SMILES strings stand for the structures. Square brackets hold non-standard residues; d marks the D form. Peptide text beside a SMILES is read from it. * marks the point of attachment. X5 = CC(C)C[C@H](NC(=O)[C@H](Cc1ccccc1)NC(=O)CCCCCN1C(=O)CC(*)C1=O)B1O[C@@H]2[C@@H]3C[C@H](C[C@]2(C)O1)C3(C)C; Pen = CC(C)(S)[C@H](N)C(=O)O; Tle = CC(C)(C)[C@H](N)C(=O)O Where only a bound is given, the exact number is not on record here.

For the molecule `CC(=O)N[C@H](C(=O)N1CCC[C@H]1C(=O)N[C@@H](CCCNC(=N)N)C(=O)N[C@@H](CCCNC(=N)N)C(=O)N1CCC[C@H]1C(=O)N[C@@H](Cc1ccc(O)cc1)C(=O)N[C@H](C(=O)N[C@@H](CC(C)C)C(=O)O)C(C)(C)C)C(C)(C)SC1CC(=O)N(CCCCCC(=O)N[C@@H](Cc2ccccc2)C(=O)N[C@@H](CC(C)C)B2O[C@@H]3[C@@H]4C[C@H](C[C@]3(C)O2)C4(C)C)C1=O` (stereo partly drawn) [Compound 1] (Ac-[Pen](X5)PRRPY[Tle]L-OH), the IC50 was greater than 10 µM.
As to `CO[C@H]1C(=O)[C@]2(C)[C@@H](OC)C[C@H]3OC[C@@]3(OC(C)=O)[C@H]2[C@H](OC(=O)c2ccccc2)[C@]2(O)C[C@H](OC(=O)[C@H](OC(=O)N(C)CCN(C)C(=O)OCc3ccc(NC(=O)[C@H](CCCNC(N)=O)NC(=O)[C@@H](NC(=O)CCCCCN4C(=O)CC(SC(C)(C)[C@H](NC(C)=O)C(=O)N5CCC[C@H]5C(=O)N[C@@H](CCCNC(=N)N)C(=O)N[C@@H](CCCNC(=N)N)C(=O)N5CCC[C@H]5C(=O)N[C@@H](Cc5ccc(O)cc5)C(=O)N[C@H](C(=O)N[C@@H](CC(C)C)C(=O)O)C(C)(C)C)C4=O)C(C)C)cc3)[C@@H](NC(=O)OC(C)(C)C)c3ccccc3)C(C)=C1C2(C)C` (stereo partly shown) [Compound 5], the IC50 stood at 1.7 µM.
Under `CO[C@H]1C(=O)[C@]2(C)[C@@H](OC)C[C@H]3OC[C@@]3(OC(C)=O)[C@H]2[C@H](OC(=O)c2ccccc2)[C@]2(O)C[C@H](OC(=O)[C@H](OC(=O)N(C)CCN(C)C(=O)OCc3ccc(NC(=O)[C@H](CCCNC(N)=O)NC(=O)[C@@H](NC(=O)CCCCCN4C(=O)CC(SC(C)(C)[C@H](NC(C)=O)C(=O)N5CCC[C@H]5C(=O)N[C@@H](CCCNC(=N)N)C(=O)N(C)[C@@H](CCCNC(=N)N)C(=O)N5CCC[C@H]5C(=O)N[C@@H](Cc5ccc(O)cc5)C(=O)N[C@H](C(=O)N[C@@H](CC(C)C)C(=O)O)C(C)(C)C)C4=O)C(C)C)cc3)[C@@H](NC(=O)OC(C)(C)C)c3ccccc3)C(C)=C1C2(C)C` (stereo partly shown) [Compound 6] stands 2.24 µM; under `CO[C@H]1C(=O)[C@]2(C)[C@@H](OC)C[C@H]3OC[C@@]3(OC(C)=O)[C@H]2[C@H](OC(=O)c2ccccc2)[C@]2(O)C[C@H](OC(=O)[C@H](OC(=O)N(C)CCN(C)C(=O)OCc3ccc(NC(=O)[C@H](CCCNC(N)=O)NC(=O)[C@@H](NC(=O)CCCCCN4C(=O)CC(SC(C)(C)[C@H](NC(C)=O)C(=O)N5CCC[C@H]5C(=O)N[C@@H](CCCNC(=N)N)C(=O)N(C)[C@@H](CCCNC(=N)N)C(=O)N5CCC[C@H]5C(=O)N[C@H](Cc5ccc(O)cc5)C(=O)N[C@H](C(=O)N[C@@H](CC(C)C)C(=O)O)C(C)(C)C)C4=O)C(C)C)cc3)[C@@H](NC(=O)OC(C)(C)C)c3ccccc3)C(C)=C1C2(C)C` (stereo partly shown) [Compound 7], 2 µM.
Under `CO[C@H]1C(=O)[C@]2(C)[C@@H](OC)C[C@H]3OC[C@@]3(OC(C)=O)[C@H]2[C@H](OC(=O)c2ccccc2)[C@]2(O)C[C@H](OC(=O)[C@H](OC(=O)N(C)CCN(C)C(=O)OCc3ccc(NC(=O)[C@H](CCCNC(N)=O)NC(=O)[C@@H](NC(=O)CCCCCN4C(=O)CC(SC(C)(C)[C@H](NC(C)=O)C(=O)N5CCC[C@H]5C(=O)N[C@@H](CCCCN)C(=O)N(C)[C@@H](CCCNC(=N)N)C(=O)N5CCC[C@H]5C(=O)N[C@@H](Cc5ccc(O)cc5)C(=O)N[C@H](C(=O)N[C@@H](CC(C)C)C(=O)O)C(C)(C)C)C4=O)C(C)C)cc3)[C@@H](NC(=O)OC(C)(C)C)c3ccccc3)C(C)=C1C2(C)C` (stereo partly shown) [Compound 8] stands 2.45 µM.
Under `CO[C@H]1C(=O)[C@]2(C)[C@@H](OC)C[C@H]3OC[C@@]3(OC(C)=O)[C@H]2[C@H](OC(=O)c2ccccc2)[C@]2(O)C[C@H](OC(=O)[C@H](OC(=O)N(C)CCCNC(=O)CNC(=O)[C@H](CC(C)C)NC(=O)[C@H](Cc3ccccc3)NC(=O)CNC(=O)CCCCCN3C(=O)CC(SCCC(=O)NCCCC[C@H](NC(C)=O)C(=O)N4CCC[C@H]4C(=O)N(C)[C@@H](CCCNC(=N)N)C(=O)N[C@@H](CCCNC(=N)N)C(=O)N4CCC[C@H]4C(=O)N[C@@H](Cc4ccc(O)cc4)C(=O)N[C@H](C(=O)N[C@@H](CC(C)C)C(=O)O)C(C)(C)C)C3=O)[C@@H](NC(=O)OC(C)(C)C)c3ccccc3)C(C)=C1C2(C)C` (stereo partly shown) [Compound 9] stands greater than 10 µM; under `COc1cc2cc(c1Cl)N(C)C(=O)C[C@H](OC(=O)[C@H](C)N(C)C(=O)CCSC1CC(=O)N(CCCNC(=O)CNC(=O)[C@H](CC(C)C)NC(=O)[C@H](Cc3ccccc3)NC(=O)CNC(=O)CCCCCN3C(=O)CC(SCCC(=O)NCCCC[C@H](NC(C)=O)C(=O)N4CCC[C@H]4C(=O)N(C)[C@@H](CCCNC(=N)N)C(=O)N[C@@H](CCCNC(=N)N)C(=O)N4CCC[C@H]4C(=O)N[C@@H](Cc4ccc(O)cc4)C(=O)N[C@H](C(=O)N[C@@H](CC(C)C)C(=O)O)C(C)(C)C)C3=O)C1=O)[C@]1(C)O[C@H]1[C@H](C)[C@@H]1C[C@@](O)(NC(=O)O1)[C@H](OC)/C=C/C=C(\C)C2` (stereo partly shown) [Compound 23], 0.0386 µM.
Consider `COc1cc2cc(c1Cl)N(C)C(=O)C[C@H](OC(=O)[C@H](C)N(C)C(=O)CCSC1CC(=O)N(CCCNC(=O)CNC(=O)[C@H](CC(C)C)NC(=O)[C@H](Cc3ccccc3)NC(=O)CNC(=O)CCCCCN3C(=O)CC(SCCC(=O)NCCOCCOCCC(=O)NCCCC[C@H](NC(C)=O)C(=O)N4CCC[C@H]4C(=O)N(C)[C@@H](CCCNC(=N)N)C(=O)N[C@@H](CCCNC(=N)N)C(=O)N4CCC[C@H]4C(=O)N[C@@H](Cc4ccc(O)cc4)C(=O)N[C@H](C(=O)N[C@@H](CC(C)C)C(=O)O)C(C)(C)C)C3=O)C1=O)[C@]1(C)O[C@H]1[C@H](C)[C@@H]1C[C@@](O)(NC(=O)O1)[C@H](OC)/C=C/C=C(\C)C2` (stereo partly shown) [Compound 24], for which the IC50 was 0.002 µM.
For `COc1cc2cc(c1Cl)N(C)C(=O)C[C@H](OC(=O)[C@H](C)N(C)C(=O)CCSC1CC(=O)N(CCCNC(=O)CNC(=O)[C@H](CC(C)C)NC(=O)[C@H](Cc3ccccc3)NC(=O)CNC(=O)CCCCCN3C(=O)CC(SCCC(=O)NCCOCCOCCOCCOCCC(=O)NCCCC[C@H](NC(C)=O)C(=O)N4CCC[C@H]4C(=O)N(C)[C@@H](CCCNC(=N)N)C(=O)N[C@@H](CCCNC(=N)N)C(=O)N4CCC[C@H]4C(=O)N[C@@H](Cc4ccc(O)cc4)C(=O)N[C@H](C(=O)N[C@@H](CC(C)C)C(=O)O)C(C)(C)C)C3=O)C1=O)[C@]1(C)O[C@H]1[C@H](C)[C@@H]1C[C@@](O)(NC(=O)O1)[C@H](OC)/C=C/C=C(\C)C2` (stereo partly shown) [Compound 25], the IC50 turned out to be 0.0022 µM.
In the case of `COc1cc2cc(c1Cl)N(C)C(=O)C[C@H](OC(=O)[C@H](C)N(C)C(=O)CCSC1CC(=O)N(CCCNC(=O)CNC(=O)[C@H](CC(C)C)NC(=O)[C@H](Cc3ccccc3)NC(=O)CNC(=O)CCCCCN3C(=O)CC(SCCC(=O)NCCOCCOCCOCCOCCOCCOCCOCCOCCC(=O)NCCCC[C@H](NC(C)=O)C(=O)N4CCC[C@H]4C(=O)N(C)[C@@H](CCCNC(=N)N)C(=O)N[C@@H](CCCNC(=N)N)C(=O)N4CCC[C@H]4C(=O)N[C@@H](Cc4ccc(O)cc4)C(=O)N[C@H](C(=O)N[C@@H](CC(C)C)C(=O)O)C(C)(C)C)C3=O)C1=O)[C@]1(C)O[C@H]1[C@H](C)[C@@H]1C[C@@](O)(NC(=O)O1)[C@H](OC)/C=C/C=C(\C)C2` (stereo partly shown) [Compound 26], the IC50 was 0.005 µM.
The figure for `CC[C@H](C)[C@@H]([C@@H](CC(=O)N1CCC[C@H]1[C@H](OC)[C@@H](C)C(=O)N[C@H](C)[C@@H](O)c1ccccc1)OC)N(C)C(=O)[C@@H](NC(=O)[C@H](C(C)C)N(C)C(=O)OCc1ccc(NC(=O)[C@H](CCCNC(N)=O)NC(=O)[C@@H](NC(=O)CCCCCN2C(=O)CC(SCCC(=O)NCCOCCOCCC(=O)NCCCC[C@H](NC(C)=O)C(=O)N3CCC[C@H]3C(=O)N(C)[C@@H](CCCNC(=N)N)C(=O)N[C@@H](CCCNC(=N)N)C(=O)N3CCC[C@H]3C(=O)N[C@@H](Cc3ccc(O)cc3)C(=O)N[C@H](C(=O)N[C@@H](CC(C)C)C(=O)O)C(C)(C)C)C2=O)C(C)C)cc1)C(C)C` (stereo partly shown) [Compound 60] is 0.0446 µM.
The figure for `CC[C@H](C)[C@@H]([C@@H](CC(=O)N1CCC[C@H]1[C@H](OC)[C@@H](C)C(=O)N[C@H](C)[C@@H](O)c1ccccc1)OC)N(C)C(=O)[C@@H](NC(=O)[C@H](C(C)C)N(C)C(=O)OCc1ccc(NC(=O)[C@H](CCCNC(N)=O)NC(=O)[C@@H](NC(=O)CCCCCN2C(=O)CC(SCCC(=O)NCCOCCOCCOCCOCCC(=O)NCCCC[C@H](NC(C)=O)C(=O)N3CCC[C@H]3C(=O)N(C)[C@@H](CCCNC(=N)N)C(=O)N[C@@H](CCCNC(=N)N)C(=O)N3CCC[C@H]3C(=O)N[C@@H](Cc3ccc(O)cc3)C(=O)N[C@H](C(=O)N[C@@H](CC(C)C)C(=O)O)C(C)(C)C)C2=O)C(C)C)cc1)C(C)C` (stereo partly shown) [Compound 61] is 0.0337 µM; for `CC[C@H](C)[C@@H]([C@@H](CC(=O)N1CCC[C@H]1[C@H](OC)[C@@H](C)C(=O)N[C@H](C)[C@@H](O)c1ccccc1)OC)N(C)C(=O)[C@@H](NC(=O)[C@H](C(C)C)N(C)C(=O)OCc1ccc(NC(=O)[C@H](CCCNC(N)=O)NC(=O)[C@@H](NC(=O)CCCCCN2C(=O)CC(SCCC(=O)NCCOCCOCCOCCOCCOCCOCCOCCOCCC(=O)NCCCC[C@H](NC(C)=O)C(=O)N3CCC[C@H]3C(=O)N(C)[C@@H](CCCNC(=N)N)C(=O)N[C@@H](CCCNC(=N)N)C(=O)N3CCC[C@H]3C(=O)N[C@@H](Cc3ccc(O)cc3)C(=O)N[C@H](C(=O)N[C@@H](CC(C)C)C(=O)O)C(C)(C)C)C2=O)C(C)C)cc1)C(C)C` (stereo partly shown) [Compound 62] it is 0.0501 µM.

For the origin of these results see US20200078468A1, “NEUROTENSIN RECEPTOR BINDING CONJUGATES AND FORMULATIONS THEREOF” (priority 2016, published 2020).
